From patent publication US20030022151A1, “Functional screening” (priority 2001, published 2003)

What was measured:
parental N2a cell line = settings: parental cells; lowest zeocin concentration tested (0.2 mg/ml); FIG. 12
Experimental: (§1) Cultured stable N2a cells expressing chimeric PS1 polypeptides were tested for cell viability in the presence of increasing concentrations of zeocin and in the presence and absence of known presenilin inhibitors in multi-well formats (FIG. 11). […] In these assays, cell viability can be assayed by commercially available cell viability ELISA kits.
(§2) Stable N2a cells expressing PS1 chimeric proteins or the parental N2a cell line were plated at a density of 6.25×10^3 cells/well into 96-well tissue culture dishes in a volume of 90 µl/well. Serial dilutions of Zeocin were added (2 mg/ml to 0.0625 mg/ml final concentration) in a volume of 10 µl/well. In some experiments the γ-secretase inhibitor, […] (purchased from Bachem) was added at a final concentration of 1 μM to one set of wells. The cells were incubated from 2 to 3 days at 37° C. Then 10 μl of Cell Proliferation Reagent WST-1 (Roche Biochemical) was added to each well. The plate was shaken for 30 sec. then placed back in the 37° C. incubator. The plate was read at 450 nm after 30 min., 1 h, 2 h and 3h in a Benchmark Plus Absorbance Plate Reader (BioRad).

[1] = system: Stable N2a cells expressing PS1 chimeric proteins; assay: Zeocin toxicity / cell viability assay (WST-1) in stable N2a cells expressing PS1 chimera; assay type: cell-based, mouse
Experimental: as §1, §2

parental PS1ΔBle cells = parental PS1ΔBle cells expressing very low levels of PS1ΔBle
Experimental: For the screen, a cell line that expresses very low levels of the PS1ΔBle protein is chosen so that the chimera is largely present as cleaved PS1 NTF and PS1ΔBleCTF. Thus, transgene-derived expression of a putative protein that facilitates increased accumulation of PS1ΔBle confers increased bleomycin (Zeocin) resistance to the target cell. […] After allowing infection/transgene expression for 2-3 days, the infected population of cells are subject to antibiotic selection in 1-2 mg/ml zeocin (5-10 times greater than the concentration normally used for selecting stable clones). At this higher concentration, only cells that accumulate several fold higher levels of PS1ΔBle relative to parental PS1ΔBle cells (that are resistant to 0.2 mg/ml), form colonies. […] If overexpression of a particular cDNA caused increased accumulation of PS1ΔBle, and therefore, an increased resistance to zeocin, in a clone, the cDNA rescued from the clone will confer increased resistance to the parental PS1ΔBle cells during the rescreening.

PS1 = PS1 (Homo sapiens, UniProt P49768); settings: previously reported (Shearman et al., 2000); cited from earlier work
PS2 = PS2 (Homo sapiens, UniProt P49810); settings: previously reported (Shearman et al., 2000); cited from earlier work
PS1-Sh ble polypeptide = molecular target: T1, PS1-Sh ble polypeptide (UniProt P17493+P49768); assay: Level of PS1-Sh ble polypeptide after inhibitor treatment; assay type: cell-based; settings: FIG. 13 legend
T1 construct: Sh ble protein (Ble, bleomycin/zeocin resistance protein of Streptoalloteichus hindustanus, 124 aa); expressed in transfected cells

SMILES	cell viability in presence of zeocin (parental N2a cell line)	zeocin concentrations at which cells are viable ([1]; cells expressing PS1 chimera, 2 to 3 days at 37° C., WST-1 read at 450 nm, FIG. 12) [mg/mL]	zeocin concentration to which cells are resistant (parental PS1ΔBle cells) [mg/mL]	binding to PS1 (PS1)	binding to PS2 (PS2)	zeocin concentrations at which inhibitor-treated cells are viable ([1]; cells expressing PS1 chimera treated with inhibitor (1 μM), FIG. 13) [mg/mL]	resistance to zeocin conferred by the PS1 chimera ([1]; inhibitor at final concentration of 1 μM plus zeocin, FIG. 13)	levels of the PS1-Sh ble polypeptide (PS1-Sh ble polypeptide)
Cc1c(N)nc([C@H](CC(N)=O)NC[C@H](N)C(N)=O)nc1C(=O)N[C@H](C(=O)N[C@H](C)[C@@H](O)[C@H](C)C(=O)N[C@H](C(=O)NCCC1=N[C@@H](c2nc(C(=O)NCCCCN=C(N)N)cs2)CS1)[C@@H](C)O)[C@@H](O[C@@H]1O[C@@H](CO)[C@@H](O)[C@H](O)[C@@H]1O[C@H]1O[C@H](CO)[C@@H](O)[C@H](OC(N)=O)[C@@H]1O)c1cnc[nH]1 [zeocin]	significantly less viable	0 to 4	0.2	–	–	–	–	–
CC(C)C[C@H](NC(=O)[C@H](Cc1ccccc1)C[C@@H](O)[C@H](Cc1ccccc1)NC(=O)OC(C)(C)C)C(=O)N[C@@H](Cc1ccccc1)C(N)=O [L-685,458]	–	–	–	bind	bind	0 to 2	reduced the resistance to zeocin	reduces the levels
